Experimental data published in PubChem BioAssay AID1963974 (Molecular Pharmacology Branch, DTP, NCI, 2024).
pIC50: −log10 of the molar value.

Test system: 648629-189-R-J1-PDC spheroids with HUVEC/MSC, viability
Test: Anticancer human tumor 648629-189-R-J1-PDC patient-derived bladder carcinoma cell line growth inhibition [PI3K]
Details: for pIC50: curve of first compound; for viability, T/C: stronger effect = lower value
How it was run: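 We assembled tumor spheroids that included a stromal compartment of HUVEC and MSCs, then exposed them to targeted agents alone and together with PI3K pathway inhibitors. Concentration series descended by half-log from clinically achievable Cmax levels. Viability served as the endpoint.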

[1] = second compound 0.0316 µM, first compound 0.0316 µM
[2] = second compound 0.0316 µM, first compound 0.1 µM
[3] = second compound 0.0316 µM, first compound 0.316 µM
[4] = second compound 0.0316 µM, first compound 1 µM
[5] = second compound 0.0316 µM, first compound 3.16 µM
[6] = second compound 0.0316 µM, first compound 10 µM
[7] = second compound 0.1 µM, first compound 0.0316 µM
[8] = second compound 0.1 µM, first compound 0.1 µM
[9] = second compound 0.1 µM, first compound 0.316 µM
[10] = second compound 0.1 µM, first compound 1 µM
[11] = second compound 0.1 µM, first compound 3.16 µM
[12] = second compound 0.1 µM, first compound 10 µM
[13] = second compound 0.316 µM, first compound 0.0316 µM
[14] = second compound 0.316 µM, first compound 0.1 µM
[15] = second compound 0.316 µM, first compound 0.316 µM
[16] = second compound 0.316 µM, first compound 1 µM
[17] = second compound 0.316 µM, first compound 3.16 µM
[18] = second compound 0.316 µM, first compound 10 µM
[19] = second compound 1 µM, first compound 0.0316 µM
[20] = second compound 1 µM, first compound 0.1 µM
[21] = second compound 1 µM, first compound 0.316 µM
[22] = second compound 1 µM, first compound 1 µM
[23] = second compound 1 µM, first compound 3.16 µM
[24] = second compound 1 µM, first compound 10 µM
[25] = second compound 3.16 µM, first compound 0.0316 µM
[26] = second compound 3.16 µM, first compound 0.1 µM
[27] = second compound 3.16 µM, first compound 0.316 µM
[28] = second compound 3.16 µM, first compound 1 µM
[29] = second compound 3.16 µM, first compound 3.16 µM
[30] = second compound 3.16 µM, first compound 10 µM
[31] = second compound 10 µM, first compound 0.0316 µM
[32] = second compound 10 µM, first compound 0.1 µM
[33] = second compound 10 µM, first compound 0.316 µM
[34] = second compound 10 µM, first compound 1 µM
[35] = second compound 10 µM, first compound 3.16 µM
[36] = second compound 10 µM, first compound 10 µM
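Note: spheroids exposed to agents for seven days before reading.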
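Throughout, for viability, T/C: percent of vehicle control luminescence where 100% = DMSO treated spheroids.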

CCCS(=O)(=O)Nc1ccc(F)c(C(=O)c2c[nH]c3ncc(-c4ccc(Cl)cc4)cc23)c1F + Cc1nc(NC(=O)N2CCCC2C(N)=O)sc1-c1ccnc(C(C)(C)C(F)(F)F)c1
pIC50 (second compound 0.0316 µM): 5.29
pIC50 (second compound 0.1 µM): 5.30
pIC50 (second compound 0.316 µM): 5.32
pIC50 (second compound 1 µM): 5.37
pIC50 (second compound 3.16 µM): 5.43
pIC50 (second compound 10 µM): > 7.50
viability, T/C [1]: 122%
viability, T/C [2]: 104%
viability, T/C [3]: 123%
viability, T/C [4]: 110%
viability, T/C [5]: 86.2%
viability, T/C [6]: 0.2%
viability, T/C [7]: 115%
viability, T/C [8]: 102%
viability, T/C [9]: 114%
viability, T/C [10]: 107%
viability, T/C [11]: 84%
viability, T/C [12]: 0.34%
viability, T/C [13]: 93.3%
viability, T/C [14]: 97.4%
viability, T/C [15]: 96.9%
viability, T/C [16]: 90.7%
viability, T/C [17]: 79%
viability, T/C [18]: 0.27%
viability, T/C [19]: 81.1%
viability, T/C [20]: 96.7%
viability, T/C [21]: 103%
viability, T/C [22]: 84.7%
viability, T/C [23]: 68.7%
viability, T/C [24]: 0.67%
viability, T/C [25]: 63.1%
viability, T/C [26]: 65.7%
viability, T/C [27]: 62%
viability, T/C [28]: 53.1%
viability, T/C [29]: 58%
viability, T/C [30]: 0.64%
viability, T/C [31]: 43.7%
viability, T/C [32]: 44.1%
viability, T/C [33]: 33.7%
viability, T/C [34]: 37%
viability, T/C [35]: 27.3%
viability, T/C [36]: 0.85%

C[C@@H](NC(=O)c1ncnc(N)c1Cl)c1ncc(C(=O)Nc2cc(C(F)(F)F)c(Cl)cn2)s1 + Cc1nc(NC(=O)N2CCCC2C(N)=O)sc1-c1ccnc(C(C)(C)C(F)(F)F)c1
pIC50 (second compound 0.0316 µM): < 5.00
pIC50 (second compound 0.1 µM): < 5.00
pIC50 (second compound 0.316 µM): < 5.00
pIC50 (second compound 1 µM): < 5.00
pIC50 (second compound 3.16 µM): < 5.00
pIC50 (second compound 10 µM): > 7.50
viability, T/C [1]: 101%
viability, T/C [2]: 93.8%
viability, T/C [3]: 98.8%
viability, T/C [4]: 116%
viability, T/C [5]: 107%
viability, T/C [6]: 106%
viability, T/C [7]: 107%
viability, T/C [8]: 92.4%
viability, T/C [9]: 95.4%
viability, T/C [10]: 108%
viability, T/C [11]: 120%
viability, T/C [12]: 118%
viability, T/C [13]: 81.2%
viability, T/C [14]: 101%
viability, T/C [15]: 83.4%
viability, T/C [16]: 93%
viability, T/C [17]: 90.9%
viability, T/C [18]: 94.5%
viability, T/C [19]: 74%
viability, T/C [20]: 73.2%
viability, T/C [21]: 78%
viability, T/C [22]: 77.9%
viability, T/C [23]: 88.7%
viability, T/C [24]: 82.6%
viability, T/C [25]: 53.3%
viability, T/C [26]: 56.6%
viability, T/C [27]: 59%
viability, T/C [28]: 55%
viability, T/C [29]: 66%
viability, T/C [30]: 54.7%
viability, T/C [31]: 40.2%
viability, T/C [32]: 35.4%
viability, T/C [33]: 39.2%
viability, T/C [34]: 36%
viability, T/C [35]: 36.6%
viability, T/C [36]: 42.7%

Cn1ncnc1[C@H]1c2n[nH]c(=O)c3cc(F)cc(c23)N[C@@H]1c1ccc(F)cc1 + Cc1nc(NC(=O)N2CCCC2C(N)=O)sc1-c1ccnc(C(C)(C)C(F)(F)F)c1
pIC50 (second compound 0.0316 µM): < 7.00
pIC50 (second compound 0.1 µM): < 7.00
pIC50 (second compound 0.316 µM): < 7.00
pIC50 (second compound 1 µM): 7.05
pIC50 (second compound 3.16 µM): 7.80
pIC50 (second compound 10 µM): > 9.50
viability, T/C (second compound 0.0316 µM, first compound 0.000316 µM): 117%
viability, T/C (second compound 0.0316 µM, first compound 0.001 µM): 101%
viability, T/C (second compound 0.0316 µM, first compound 0.00316 µM): 91.2%
viability, T/C (second compound 0.0316 µM, first compound 0.01 µM): 82.1%
viability, T/C [1]: 83.4%
viability, T/C [2]: 64.7%
viability, T/C (second compound 0.1 µM, first compound 0.000316 µM): 115%
viability, T/C (second compound 0.1 µM, first compound 0.001 µM): 96.9%
viability, T/C (second compound 0.1 µM, first compound 0.00316 µM): 93.5%
viability, T/C (second compound 0.1 µM, first compound 0.01 µM): 77.8%
viability, T/C [7]: 80.4%
viability, T/C [8]: 58.6%
viability, T/C (second compound 0.316 µM, first compound 0.000316 µM): 85.8%
viability, T/C (second compound 0.316 µM, first compound 0.001 µM): 94.5%
viability, T/C (second compound 0.316 µM, first compound 0.00316 µM): 90.8%
viability, T/C (second compound 0.316 µM, first compound 0.01 µM): 78.3%
viability, T/C [13]: 68.2%
viability, T/C [14]: 52.7%
viability, T/C (second compound 1 µM, first compound 0.000316 µM): 73.8%
viability, T/C (second compound 1 µM, first compound 0.001 µM): 74.8%
viability, T/C (second compound 1 µM, first compound 0.00316 µM): 70.6%
viability, T/C (second compound 1 µM, first compound 0.01 µM): 74.9%
viability, T/C [19]: 60.8%
viability, T/C [20]: 48.8%
viability, T/C (second compound 3.16 µM, first compound 0.000316 µM): 64.4%
viability, T/C (second compound 3.16 µM, first compound 0.001 µM): 57.6%
viability, T/C (second compound 3.16 µM, first compound 0.00316 µM): 58.4%
viability, T/C (second compound 3.16 µM, first compound 0.01 µM): 48.7%
viability, T/C [25]: 49.7%
viability, T/C [26]: 43.5%
viability, T/C (second compound 10 µM, first compound 0.000316 µM): 40.6%
viability, T/C (second compound 10 µM, first compound 0.001 µM): 36.1%
viability, T/C (second compound 10 µM, first compound 0.00316 µM): 39.7%
viability, T/C (second compound 10 µM, first compound 0.01 µM): 35%
viability, T/C [31]: 29.7%
viability, T/C [32]: 28.5%
